The term EC50 denotes the concentration that produces a half-maximal response. Usually IC50 stands for the concentration at which inhibition is half-maximal.

Experimental findings from patent US10669272B2, “Substituted naphthyridinone compounds useful as T cell activators” (BRISTOL-MYERS SQUIBB COMPANY, priority 2018, dated 2020) are described below.

The structures appear in SMILES notation. Like-named read-outs stand apart in the source and are kept apart here.

The subject of test [1] is naïve human CD8 T cells. Put plainly: Human CD8 T cells IFN-γ assay.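 Also: Naïve human CD8 T cells stimulated with plate-bound anti-CD3 and soluble anti-CD28, IFN-γ in supernatant quantified by AlphaLISA and converted to pg/mL.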 The test is classed as cell-based. To be noted: read-out: HuCD8 INFG Normalized EC50.
Test [2] relates to Human venous whole blood. In words: Human whole blood IFN-γ assay.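 Also: blood from healthy donors exposed to compound for 1 h before stimulation with anti-CD3 and anti-CD28 at 1 µg/mL each, IFN-γ quantified in supernatant by AlphaLISA.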 The class given is cell-based. Conditions: read-out: INFg Whole Blood Normalized Agonist EC50, human whole blood.
Procedure: Human Whole Blood IFN-γ Assay
Human venous whole blood (22.5 μL per well), obtained from healthy donors, was pre-treated with compounds for one hour at 37° C. in a humidified 95% air/5% CO2 incubator. The blood was stimulated with 2.5 μL anti-human CD3 and anti-CD28 mAb at a final concentration of 1 μg/mL each for 24 hours at 37° C. IFN-γ in the supernatants was measured using AlphLISA kit (Cat # AL217).
Test [3] addresses T1, human DGKζ (Homo sapiens, UniProt Q13574).
T1 construct: TVMV protease cleavage site (C); Hexa-His (C); made in house; host or cells: Sf9 insect cells (baculovirus, Bac-to-Bac)
Put plainly: DGKζ LIPGLO assay (extruded liposome substrate), in vitro DGK inhibition. The test is classed as biochemical. Conditions: liposome (LIPGLO) assay; read-out: DGKz LIPGLO IC50.

In test [4] the target is T2, human DGKα (Homo sapiens, UniProt P23743).
T2 construct: TVMV protease cleavage site (C); Hexa-His (C); made in house; host or cells: Sf9 insect cells (baculovirus, Bac-to-Bac)
In words: DGKα LIPGLO assay (extruded liposome substrate), in vitro DGK inhibition. The test is classed as biochemical. Conditions: liposome (LIPGLO) assay; read-out: DGKa LIPGLO IC50.

The mark [5] stands for this setting: Homo sapiens, T-cell, 20 h, normalized to 3 μM reference compound with anti-CD3 plus anti-CD28 as 100% activation.
Where [6] appears, read: normalized to 3 μM reference compound with anti-CD3 plus anti-CD28 as 100% activation.

T2 sequence (P23743 with tags, fused parts or gaps): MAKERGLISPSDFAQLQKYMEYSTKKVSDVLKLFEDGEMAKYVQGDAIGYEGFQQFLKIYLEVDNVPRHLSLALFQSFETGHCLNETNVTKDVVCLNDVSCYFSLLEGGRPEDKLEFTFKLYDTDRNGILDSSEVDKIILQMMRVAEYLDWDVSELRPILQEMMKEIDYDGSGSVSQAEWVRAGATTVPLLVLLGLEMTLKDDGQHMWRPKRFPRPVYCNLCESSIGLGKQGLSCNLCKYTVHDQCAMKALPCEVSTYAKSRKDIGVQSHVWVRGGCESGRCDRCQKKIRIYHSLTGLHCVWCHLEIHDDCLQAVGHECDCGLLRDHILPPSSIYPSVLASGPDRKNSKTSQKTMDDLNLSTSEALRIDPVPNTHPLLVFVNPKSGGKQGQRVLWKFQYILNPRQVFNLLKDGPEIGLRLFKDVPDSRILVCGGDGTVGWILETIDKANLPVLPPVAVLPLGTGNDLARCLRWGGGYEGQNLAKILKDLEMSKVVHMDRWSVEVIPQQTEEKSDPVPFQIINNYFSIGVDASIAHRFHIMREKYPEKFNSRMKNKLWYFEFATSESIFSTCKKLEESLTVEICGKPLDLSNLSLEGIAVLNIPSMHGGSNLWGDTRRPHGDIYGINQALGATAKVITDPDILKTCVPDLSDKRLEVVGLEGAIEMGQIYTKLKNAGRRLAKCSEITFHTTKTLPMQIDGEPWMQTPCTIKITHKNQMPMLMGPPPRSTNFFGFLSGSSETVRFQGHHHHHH
T1 sequence (Q13574 with tags, fused parts or gaps isoform Q13574-4): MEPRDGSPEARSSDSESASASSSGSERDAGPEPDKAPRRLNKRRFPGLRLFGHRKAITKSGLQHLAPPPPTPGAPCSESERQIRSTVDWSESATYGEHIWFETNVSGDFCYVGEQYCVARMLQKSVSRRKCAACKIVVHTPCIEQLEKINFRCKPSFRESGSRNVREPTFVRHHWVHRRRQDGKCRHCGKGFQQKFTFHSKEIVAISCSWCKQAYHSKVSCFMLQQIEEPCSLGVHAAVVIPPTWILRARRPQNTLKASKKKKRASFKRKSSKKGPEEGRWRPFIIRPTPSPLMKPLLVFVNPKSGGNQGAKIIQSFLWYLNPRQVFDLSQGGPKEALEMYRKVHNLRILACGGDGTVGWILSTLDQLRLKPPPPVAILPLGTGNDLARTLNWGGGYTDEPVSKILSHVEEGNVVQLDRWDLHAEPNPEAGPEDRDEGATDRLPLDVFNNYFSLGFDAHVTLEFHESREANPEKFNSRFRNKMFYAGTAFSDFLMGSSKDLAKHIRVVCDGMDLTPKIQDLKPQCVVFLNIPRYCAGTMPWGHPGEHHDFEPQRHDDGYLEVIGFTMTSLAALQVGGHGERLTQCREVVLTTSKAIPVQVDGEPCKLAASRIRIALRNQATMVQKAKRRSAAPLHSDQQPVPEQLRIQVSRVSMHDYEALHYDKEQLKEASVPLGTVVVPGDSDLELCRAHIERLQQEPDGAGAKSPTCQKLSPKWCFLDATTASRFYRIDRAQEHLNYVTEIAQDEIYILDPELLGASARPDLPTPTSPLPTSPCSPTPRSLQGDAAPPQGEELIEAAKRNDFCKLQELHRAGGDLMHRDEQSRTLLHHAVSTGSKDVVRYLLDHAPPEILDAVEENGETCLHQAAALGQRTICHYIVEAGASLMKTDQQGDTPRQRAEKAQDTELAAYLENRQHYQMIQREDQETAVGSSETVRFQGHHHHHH

Take `C[C@@H]1CN(c2c(C#N)c(=O)n(C)c3ccc(C#N)nc23)CCN1C(c1ccccc1)c1ccc(Cl)cc1` (single isomer, unassigned) [Example 886]: the EC50 came out at 0.0096 µM in test [1] (Homo sapiens, T-cell, 20 h, naïve human CD8 T cells, anti-CD3 plus anti-CD28, 3 μM reference compound = 100% activation) and 0.6 µM in test [2] (anti-CD3 plus anti-CD28, 24 hours, 3 μM reference compound = 100% activation).

For `CCC(c1ccc(F)cc1F)N1C[C@H](C)N(c2cc(=O)n(C)c3ccc(C#N)nc23)C[C@H]1C` (single isomer, unassigned) [Example 338], the concentration giving a half-maximal response (EC50) in test [1] (setting [5]) worked out at 0.02 µM; in test [2] (Homo sapiens, normalized to 3 μM reference compound with anti-CD3 plus anti-CD28 as 100% activation), 0.13 µM.

Regarding `C[C@@H]1CN(C(c2ccc(F)cc2)c2ccc(F)cc2)[C@@H](C)CN1c1c(C#N)c(=O)n(C)c2ccc(C#N)nc12` [Example 6, 8-((2R,5S)-4-(bis(4-fluorophenyl)methyl)-2,5-dimethylpiperazin-1-yl)-5-methyl-6-oxo-5,6-dihydro-1,5-naphthyridine-2,7-dicarbonitrile], the EC50 in test [1] (setting [5]) came out at 0.56 µM. Besides, the IC50 in test [3] stood at 16 µM; in test [4] it was 25 µM.

As for `Cn1c(=O)c(C#N)c(N2CCN(C(c3ccc(F)cc3)c3ccc(F)cc3)CC2CO)c2nc(Br)ccc21` (stereo not shown) [Example 118, 4-(4-(bis(4-fluorophenyl)methyl)-2-(hydroxymethyl)piperazin-1-yl)-6-bromo-1-methyl-2-oxo-1,2-dihydro-1,5-naphthyridine-3-carbonitrile], the EC50 in test [1] (setting [5]) was 0.71 µM. Besides, the IC50 in test [3] was determined as 63 µM; in test [4], 10 µM.

As to `COc1ccc2c(n1)c(N1C[C@@H](C)N(C(c3ccccc3)c3ccc(F)cc3)C[C@@H]1C)cc(=O)n2C` (single isomer, unassigned) [Example 239], in test [1] (setting [6]), the concentration giving a half-maximal response (EC50) was 10 µM. Besides, the IC50 in test [3] was 64 µM; in test [4], 5.9 µM.

On to `Cn1c(=O)cc(N2CCN(C(c3ccc(F)cc3)c3ccc(F)cc3)CC2C(=O)O)c2nc(C#N)ccc21` (stereo not shown) [Example 138, 4-(bis(4-fluorophenyl)methyl)-1-(6-cyano-1-methyl-2-oxo-1,2-dihydro-1,5-naphthyridin-4-yl)piperazine-2-carboxylic acid], for which the concentration giving a half-maximal response (EC50) in test [1] (setting [5]) is 10 µM. In addition, the figures for the 50% inhibitory concentration (IC50) in test [3] and in test [4] were 95 µM and 82 µM, respectively.

Take `Cn1c(=O)cc(N2CCN(C(c3ccc(F)cc3)c3ccc(F)cc3)C(C(=O)NC3CC3)C2)c2nc(C#N)ccc21` (single isomer, unassigned) [Example 48, 1-(bis(4-fluorophenyl)methyl)-4-(6-cyano-1-methyl-2-oxo-1,2-dihydro-1,5-naphthyridin-4-yl)-N-cyclopropylpiperazine-2-carboxamide]: the concentration giving a half-maximal response (EC50) in test [1] (setting [6]) was 3.8 µM. The concentration for half-maximal inhibition (IC50) in test [3] is 20 µM; in test [4], 240 µM.

Turning to `C[C@@H]1CN(c2cc(=O)n(C)c3ccc(C#N)nc23)[C@@H](C)CN1C(c1ccccc1)c1ccccc1` [Example 237, 8-[(2S,5R)-4-(diphenylmethyl)-2,5-dimethylpiperazin-1-yl]-5-methyl-6-oxo-5,6-dihydro-1,5-naphthyridine-2-carbonitrile], in test [1] (setting [5]), the half-maximal effective concentration (EC50) is 0.039 µM. For the same molecule, the half-inhibitory concentration (IC50) was 1.4 µM in test [3] and 0.93 µM in test [4].

Take `Cn1c(=O)cc(N2CCN(C(c3ccc(F)cc3)c3ccc(F)cc3)C(C)(C)C2)c2nc(C#N)ccc21` [Example 171, 8-(4-(bis(4-fluorophenyl)methyl)-3,3-dimethylpiperazin-1-yl)-5-methyl-6-oxo-5,6-dihydro-1,5-naphthyridine-2-carbonitrile]: the EC50 in test [1] (setting [5]) turned out to be 10 µM. In addition, the IC50 in test [3] amounted to 94 µM; in test [4], 0.24 µM.

On to `CC(C)OC(=O)C1CN(c2cc(=O)n(C)c3ccc(C#N)nc23)CCN1C(c1ccc(F)cc1)c1ccc(F)cc1` (single isomer, unassigned) [Example 62, Isopropyl 1-(bis(4-fluorophenyl)methyl)-4-(6-cyano-1-methyl-2-oxo-1,2-dihydro-1,5-naphthyridin-4-yl)piperazine-2-carboxylate], for which the EC50 in test [1] (setting [6]) was 1.8 µM. For the same molecule, the half-inhibitory concentration (IC50) in test [3] amounted to 15 µM; in test [4], 240 µM.

On to `C[C@@H]1CN(c2cc(=O)n(C)c3ccc(C#N)nc23)[C@@H](C)CN1Cc1c(F)cc(C#N)cc1F` [Example 267, 8-[(2S,5R)-4-[(4-cyano-2,6-difluorophenyl)methyl]-2,5-dimethylpiperazin-1-yl]-5-methyl-6-oxo-5,6-dihydro-1,5-naphthyridine-2-carbonitrile], for which the EC50 in test [1] (setting [5]) worked out at 10 µM. Moreover, the IC50 is 1.6 µM in test [3] and 0.39 µM in test [4].

Turning to `COC(=O)C1CN(c2c(F)c(=O)n(C)c3ccc(C#N)nc23)CCN1C(c1ccc(Cl)cc1)c1ccc(Cl)cc1` (single isomer, unassigned) [Example 94, methyl 1-(bis(4-chlorophenyl)methyl)-4-(6-cyano-3-fluoro-1-methyl-2-oxo-1,2-dihydro-1,5-naphthyridin-4-yl)piperazine-2-carboxylate], the concentration for a half-maximal effect (EC50) in test [1] (setting [6]) was determined as 0.4 µM. The values for the concentration for half-maximal inhibition (IC50) in test [3] and in test [4] were 4.4 µM and 27 µM, respectively.

Turning to `COC(=O)C1CN(c2cc(=O)n(C)c3ccc(C#N)nc23)CCN1C(c1ccc(F)cc1)c1ccc(F)cc1OC` (single isomer, unassigned) [Example 67, Methyl 4-(6-cyano-1-methyl-2-oxo-1,2-dihydro-1,5-naphthyridin-4-yl)-1-((4-fluoro-2-methoxyphenyl)(4-fluorophenyl)methyl)piperazine-2-carboxylate], in test [1] (setting [6]), the EC50 is 0.03 µM. Moreover, the IC50 in test [3] came out at 0.92 µM; in test [4], 48 µM.

Turning to `Cn1c(=O)cc(N2CCN(C(c3ccc(F)cc3)c3ccc(F)cc3)C(C(=O)O)C2)c2nc(C#N)ccc21` (stereo not shown) [Example 55, 1-(bis(4-fluorophenyl)methyl)-4-(6-cyano-1-methyl-2-oxo-1,2-dihydro-1,5-naphthyridin-4-yl)piperazine-2-carboxylic acid], the EC50 in test [1] (setting [5]) came to 6.4 µM. Also, the IC50 in test [3] is 180 µM; in test [4], 240 µM.

Regarding `Cn1c(=O)c(C#N)c(N2CCN(C(c3ccc(F)cc3)c3ccc(F)cc3)C(CO)C2)c2nc(Br)ccc21` (stereo not shown) [Example 17, 4-(4-(bis(4-fluorophenyl)methyl)-3-(hydroxymethyl)piperazin-1-yl)-6-bromo-1-methyl-2-oxo-1,2-dihydro-1,5-naphthyridine-3-carbonitrile], the EC50 in test [1] (setting [5]) was 6.5 µM. For the same molecule, the IC50 was 19 µM in test [3] and 2.3 µM in test [4].

As to `Cn1c(=O)cc(N2CCN(C(c3ccc(F)cc3)c3ccc(F)cc3)CC2C(=O)NC2CC2)c2nc(C#N)ccc21` (single isomer, unassigned) [Example 140, 4-(bis(4-fluorophenyl)methyl)-1-(6-cyano-1-methyl-2-oxo-1,2-dihydro-1,5-naphthyridin-4-yl)-N-cyclopropylpiperazine-2-carboxamide], in test [1] (setting [6]), the concentration for a half-maximal effect (EC50) was 6.6 µM. For the same molecule, the IC50 in test [3] was 25 µM; in test [4], 150 µM.

Regarding `Cn1c(=O)cc(N2CCN(C(c3ccc(F)cc3)c3ccc(F)cc3)C(C(=O)NC3CC3)C2)c2nc(C#N)ccc21` (racemic) [Example 46, 1-(bis(4-fluorophenyl)methyl)-4-(6-cyano-1-methyl-2-oxo-1,2-dihydro-1,5-naphthyridin-4-yl)-N-cyclopropylpiperazine-2-carboxamide], the concentration for a half-maximal effect (EC50) in test [1] (setting [5]) was found to be 4.7 µM. For the same molecule, the IC50 in test [3] turned out to be 3.5 µM; in test [4], 240 µM.

For the molecule `Cn1c(=O)cc(N2CCN(C(c3ccc(F)cc3)c3ccc(F)cc3)C(C(N)=O)C2)c2nc(C#N)ccc21` (single isomer, unassigned) [Example 41, 1-(bis(4-fluorophenyl)methyl)-4-(6-cyano-1-methyl-2-oxo-1,2-dihydro-1,5-naphthyridin-4-yl)piperazine-2-carboxamide], the concentration giving a half-maximal response (EC50) in test [1] (setting [6]) stood at 1.5 µM. Further, the IC50 in test [3] was 46 µM; in test [4] it was 14 µM.

Regarding `Cn1c(=O)cc(N2CCN(C(c3ccc(F)cc3)c3ccc(F)cc3)CC2CO)c2nc(C#N)ccc21` (single isomer, unassigned) [Example 148, 8-(4-(bis(4-fluorophenyl)methyl)-2-(hydroxymethyl)piperazin-1-yl)-5-methyl-6-oxo-5,6-dihydro-1,5-naphthyridine-2-carbonitrile], in test [1] (setting [6]), the concentration giving a half-maximal response (EC50) was found to be 0.42 µM. The half-maximal inhibitory concentration (IC50) was 75 µM in test [3] and 240 µM in test [4].

Take `COc1ccc2c(n1)c(N1C[C@@H](C)N(C(c3ccc(F)cc3)c3ccc(Cl)cc3)C[C@@H]1C)cc(=O)n2C` (stereo partly drawn) [Example 240, 4-[(2S,5R)-4-[(4-chlorophenyl)(4-fluorophenyl)methyl]-2,5-dimethylpiperazin-1-yl]-6-methoxy-1-methyl-1,2-dihydro-1,5-naphthyridin-2-one]: in test [1] (setting [5]), the half-maximal effective concentration (EC50) was found to be 12 µM. In addition, the half-inhibitory concentration (IC50) in test [3] is 20 µM; in test [4], 15 µM.

`Cn1c(=O)cc(N2CCN(C(c3ccc(F)cc3)c3ccc(F)cc3)CC2CO)c2nc(C#N)ccc21` (single isomer, unassigned) [Example 147, 8-(4-(bis(4-fluorophenyl)methyl)-2-(hydroxymethyl)piperazin-1-yl)-5-methyl-6-oxo-5,6-dihydro-1,5-naphthyridine-2-carbonitrile]: the EC50 in test [1] (setting [6]) amounted to 2 µM. The values for the IC50 in test [3] and in test [4] were 15 µM and 48 µM, respectively.
